{"source": "patent US20080193563A1", "about": "“HARNESSING WNT SIGNALING TO RESTRICT HIV REPLICATION” (priority 2006, published 2008)", "key": {"HIV-Bal in HFA": {"test_system": "HIV-Bal in HFA", "experiment": "Cytokine pre-stimulation and HIV-Bal replication in human fetal astrocytes, p24 ELISA", "format": "cell-based", "details": "24 h pre-stimulation, p24 day 7", "experimental": "(§1) U87MG (A) and HFA (B) were pre-stimulated with increasing doses of either GM-CSF or IFNγ for 24 h followed by HIV-BAL infection for 24 hours. HIV replication was determined by measuring HIV p24 levels by ELISA seven days post-infection. The dotted line represents basal level of HIV infection of astrocytes without cytokine pre-treatment. Data is representative of three experiments performed in quadruplicate. Error bars represent standard deviations of the mean. Asterisks denote significant values (p<0.05) in comparison to untreated cultures as evaluated by analysis of variance.\n(§2) To determine if pre-stimulation of astrocytes primes astrocytes, for productive HIV infection, U87MG and HFA were pre-treated for 24 hours with TNFγ, GM-CSF, or IFNγ at various concentrations (0-1000 ng/ml) then infected with HIV-Bal at 10 ng of HIV p24/1×10^6 cells for 24 hours. The cells were then washed extensively or trypsinized to remove bound virus and propagated in the presence of the respective cytokine concentration. HIV infection was monitored by p24 ELISA seven days post-infection. […]\n(§3) IFN-γ Treatment and HIV Infection. […] HIV infection was monitored at day 7 postinfection by measuring p24 levels by conventional enzyme-linked immunosorbent assay (ELISA) (National Cancer Institute, Frederick, Md.)."}, "CD4, hMR, CXCR4 on HFA": {"test_system": "CD4, hMR, CXCR4 on HFA", "experiment": "HIV receptor and chemokine co-receptor expression on HFA by flow cytometry", "format": "cell-based, human", "experimental": "U87MG (A) and HFA (B) were left untreated or treated GM-CSF (50 ng/ml) or IFNγ (100 ng/ml) for 24 h. Expression of receptors on the x-axis was measured by flow cytometry. Isotype refers to mouse IgG. Data is representative of three experiments. Error bars represent standard deviation of the mean. (C). IFNγ up-regulates D6 on U87MG cells. U87MG were left untreated or treated with IFNγ. After 3 days, the cells were immunostained with anti-D6 or isotype antibodies. The first histogram (peak) represents isotype control; the dark shaded histogram represents untreated cultures, and the third histogram (peak) represents IFNγ-treated cultures. Data is typical of quadruplet experiments.\nBecause IFNγ was a potent cytokine in inducing HIV infection of astrocytes, it was determined whether IFNγ treatment modulated key HIV receptors CD4, human mannose receptor D6 and co-receptors (CCR1, CCR2, CCR3, CXCR4, and CCR5) for HIV infection. U87MG is human mannose receptor (hMR) […] (FIG. 5). However, hMR was not detected on HFA, which may be regulated by the differentiation stage of the HFA (FIG. 5 (B)). CD4 and hMR expression in both U87MG and HFA was not augmented by IFNγ or GM-CSF (FIG. 5(A)-(B)). […] HFA were positive for CXCR4 (12%), but its expression was not augmented by GM-CSF or IFNγ treatment (FIG. 5B). IFNγ was reported to enhance CXCR4 and CCR5 expression on simian adult astrocytes, which is in contrast to data on human fetal astrocytes highlighting a discrepancy between simian adult and human fetal astrocytes. […] Infection of U87MG and HFA with a T-tropic isolate (IIIB), while it was productive, was not enhanced by cytokine pre-treatment. This may be a consequence of the laboratory adapted HIV IIIB, therefore primary T-tropic or dual tropic strains may still be responsive to IFNγ pre-treatment of astrocytes. Recently, the CC chemokine receptor D6 was identified as a functional co-receptor for primary HIV infection of astrocytes."}, "IFNγ receptor on HFA": {"test_system": "IFNγ receptor on HFA", "experiment": "Cytokine receptor expression on HFA by flow cytometry", "format": "cell-based, human", "details": "untreated 6%", "experimental": "U87MG (A) or HFA (B) were left untreated or treated with GM-CSF (50 ng/ml), IFNγ100 ng/ml) or TNFγ100 ng/ml). […] Percent expression of GM-CSF receptor (R), IFNγR, and TNFγR was measured 24 hours post-stimulation by flow cytometry. Data is representative of three experiments. Error bars represent standard deviations of the mean.\nPrior to evaluating if GM-CSF, IFNγ, and TNFγ can augment HIV replication of astrocytes, a question was whether U87MG and HFA express the respective cytokine receptors. U87MG and HFA were treated with or without the respective cytokine for 24 hours and cytokine receptor expression was evaluated by flow cytometry. Approximately 35% of U87MG expressed the IFNγ receptor and a low level of GM-CSF and TNFγ receptors (<8%; FIG. 3A). […] Untreated HFA expressed only low levels of IFNγ receptor (6%) and this expression was abrogated with IFNγ treatment. GM-CSF and TNFγ receptors were not expressed on HFA."}, "HIV-Bal in U87MG": {"test_system": "HIV-Bal in U87MG", "experiment": "Cytokine pre-stimulation and HIV-Bal replication in U87MG, p24 ELISA", "format": "cell-based", "details": "24 h pre-stimulation, 0-1000 ng/ml, p24 day 7", "experimental": "as §1, §2, §3"}}}
{"substance": "IFNγ: cytokine secreted by lymphocytes, activated microglia and astrocytes; used to prime astrocytes", "values": [{"measurement": "Induction of HIV replication", "setting": "HIV-Bal in HFA", "result": 2, "unit": "fold"}, {"measurement": "CD4 and hMR expression", "setting": "CD4, hMR, CXCR4 on HFA", "result": "not augmented"}, {"measurement": "CXCR4 expression", "setting": "CD4, hMR, CXCR4 on HFA; untreated 12%", "result": "not augmented"}, {"measurement": "IFNγ receptor expression after treatment", "setting": "IFNγ receptor on HFA", "result": "abrogated"}, {"measurement": "Maximal induction of HIV replication vs untreated/infected cultures", "setting": "HIV-Bal in U87MG", "result": 10, "unit": "fold"}]}
